Laboratory results as given in US8835377B2, “Oral delivery of peptide pharmaceutical compositions” (UGP Therapeutics, Inc., priority 2004, dated 2014).

Assay: Pharmacokinetics after oral capsules (sCT plus Dmt-DALDA with citric acid and lauroyl carnitine), non-enteric coated or enteric coated, in fasted beagle dogs (plasma; ELISA for sCT, HPLC-MS for Dmt-DALDA)
Type: in vivo
Details: for AUC / Cmax: normalized to a 1 mg dose; for Tmax / Cmax: beagle, dog, plasma, oral; for plasma peptide concentration normalized to a 1 mg dose: enteric coated capsule
Procedure: A second series of tests was carried out, as noted above, using beagle dogs. […] In the experiments represented in FIGS. 2A and 2B, size 00 […] capsules were each filled with 758 mg of a powdered blend consisting of citric acid (643 mg), lauroyl carnitine (66 mg), talc (33 mg), salmon calcitonin (sCT) (13 mg) and Dmt-DALDA (2.4 mg). Half of the capsules were coated with an enteric coating solution of L30D-55, while the remaining 50% of the capsules were not coated. Four fasted dogs were each given 1 uncoated capsule, and 2 weeks later they were each given an enteric coated capsule. After administration of each capsule, samples of blood were taken at 15 minute intervals from an indwelling catheter for up to 4 hours. The blood samples were centrifuged and the resulting plasma supernatants were stored frozen at −20° C. The plasma samples were subsequently analyzed for sCT by a direct ELISA, and for Dmt-DALDA by HPLC-mass spectrometry performed as set forth in Wan, H. and Desiderio, D., Quantitation of [DMT^1] DALDA in ovine plasma by on-line liquid chromatography/quadrapole time-of-flight mass spectrometry, Rapid Communications in Mass Spectrometry, 2003; 17, 538-546, the contents of which are incorporated herein by reference.
The results summarized in FIGS. 2A and 2B as plasma peptide concentration normalized to a 1 mg dose as a function of time relative to the average Tmax, (i.e., the time at which the maximum amount of peptide was detected) indicate that both peptides, i.e., sCT and Dmt-DALDA, were detected in dogs given uncoated or enteric coated capsules. […] Table DI (below) sets forth the values upon which the curves in FIGS. 2A and 2B are based. The results are summarized in the tables as plasma peptide concentration normalized to a 1 mg dose as a function of time. Table III, moreover, provides the standard deviations for the data obtained regarding each of the test dogs, which standard deviations are also indicated in FIGS. 2A and 2B.
Table IV (below) summarizes the pharmacokinetic parameters in dogs of orally administered sCT and Dmt-DALDA when administered in non-enteric coated versus enteric coated capsules. Peptide was not detected from 1 dog in each group due to (a) Dog 3 vomiting the uncoated capsule and (b) delayed gastric emptying in Dog 2 provided with an enteric coated capsule. Cmax and AUC are as defined with regard to Table H above.

[1] = Non-Enteric Capsule, Avg (n = 3)

CC(C)C[C@H](NC(=O)[C@H](CCCCN)NC(=O)CNC(=O)[C@H](CC(C)C)NC(=O)[C@@H](NC(=O)[C@@H]1CSSC[C@H](N)C(=O)N[C@@H](CO)C(=O)N[C@@H](CC(N)=O)C(=O)N[C@@H](CC(C)C)C(=O)N[C@@H](CO)C(=O)N[C@@H]([C@@H](C)O)C(=O)N1)C(C)C)C(=O)N[C@@H](CO)C(=O)N[C@@H](CCC(N)=O)C(=O)N[C@@H](CCC(=O)O)C(=O)N[C@@H](CC(C)C)C(=O)N[C@@H](Cc1c[nH]cn1)C(=O)N[C@@H](CCCCN)C(=O)N[C@@H](CC(C)C)C(=O)N[C@@H](CCC(N)=O)C(=O)N[C@H](C(=O)N[C@@H](Cc1ccc(O)cc1)C(=O)N1CCC[C@H]1C(=O)N[C@@H](CCCNC(=N)N)C(=O)N[C@H](C(=O)N[C@@H](CC(N)=O)C(=O)N[C@H](C(=O)NCC(=O)N[C@@H](CO)C(=O)NCC(=O)N[C@H](C(=O)N1CCC[C@H]1C(N)=O)[C@@H](C)O)[C@@H](C)O)[C@@H](C)O)[C@@H](C)O [sCT, salmon calcitonin]
AUC (Enteric Capsule, Avg (n = 3)): 788317 pg/mL-min
AUC (Enteric Capsule, Dog 1): 1178504 pg/mL-min
AUC (Enteric Capsule, Dog 2 (delayed gastric emptying)): 0 pg/mL-min
AUC (Enteric Capsule, Dog 3): 522432 pg/mL-min
AUC (Enteric Capsule, Dog 4): 664016 pg/mL-min
AUC [1]: 69539 pg/mL-min
AUC (Non-Enteric Capsule, Dog 1): 79620 pg/mL-min
AUC (Non-Enteric Capsule, Dog 2): 103772 pg/mL-min
AUC (Non-Enteric Capsule, Dog 3 (vomited capsule)): 0 pg/mL-min
AUC (Non-Enteric Capsule, Dog 4): 25227 pg/mL-min
Tmax (Enteric Capsule, Avg (n = 3)): 105 min
Cmax (Enteric Capsule, Avg (n = 3)): 17.2 ng/mL
Cmax (Enteric Capsule, Dog 1): 25.1 ng/mL
Tmax (Enteric Capsule, Dog 3): 135 min
Cmax (Enteric Capsule, Dog 3): 13.2 ng/mL
Tmax (Enteric Capsule, Dog 4): 120 min
Cmax (Enteric Capsule, Dog 4): 13.1 ng/mL
Tmax [1]: 30 min
Cmax [1]: 2.26 ng/mL
Tmax (Non-Enteric Capsule, Dog 1): 30 min
Cmax (Non-Enteric Capsule, Dog 1): 2.65 ng/mL
Tmax (Non-Enteric Capsule, Dog 2): 30 min
Cmax (Non-Enteric Capsule, Dog 2): 3.15 ng/mL
Tmax (Non-Enteric Capsule, Dog 4): 30 min
Cmax (Non-Enteric Capsule, Dog 4): 0.971 ng/mL
Cmax and AUC, enteric coated capsules versus non enteric-coated capsules (dogs): significantly enhanced
amount of peptide detected in plasma, enteric coated capsules vs non-coated capsules (dogs): nearly eight times as much
time at which the maximum concentration was seen (dogs given coated capsules): 105 min
time at which the maximum concentration was seen (dogs given uncoated capsules): 30 min
plasma peptide concentration normalized to a 1 mg dose (Dog 1, 0 min): 0 pg/mL
plasma peptide concentration normalized to a 1 mg dose (Dog 1, 15 min): 0 pg/mL
plasma peptide concentration normalized to a 1 mg dose (Dog 1, 30 min): 407 pg/mL
plasma peptide concentration normalized to a 1 mg dose (Dog 1, 45 min): 22650 pg/mL
plasma peptide concentration normalized to a 1 mg dose (Dog 1, 60 min): 25136 pg/mL
plasma peptide concentration normalized to a 1 mg dose (Dog 1, 75 min): 6444 pg/mL
plasma peptide concentration normalized to a 1 mg dose (Dog 1, 90 min): 8167 pg/mL
plasma peptide concentration normalized to a 1 mg dose (Dog 1, 105 min): 4344 pg/mL
plasma peptide concentration normalized to a 1 mg dose (Dog 1, 120 min): 3193 pg/mL
plasma peptide concentration normalized to a 1 mg dose (Dog 1, 135 min): 2710 pg/mL
plasma peptide concentration normalized to a 1 mg dose (Dog 1, 150 min): 1706 pg/mL
plasma peptide concentration normalized to a 1 mg dose (Dog 1, 165 min): 1283 pg/mL
plasma peptide concentration normalized to a 1 mg dose (Dog 1, 180 min): 1301 pg/mL
plasma peptide concentration normalized to a 1 mg dose (Dog 1, 195 min): 459 pg/mL
plasma peptide concentration normalized to a 1 mg dose (Dog 1, 210 min): 347 pg/mL
plasma peptide concentration normalized to a 1 mg dose (Dog 2 (delayed gastric emptying), 0 min): 0 pg/mL
plasma peptide concentration normalized to a 1 mg dose (Dog 2 (delayed gastric emptying), 15 min): 0 pg/mL
plasma peptide concentration normalized to a 1 mg dose (Dog 2 (delayed gastric emptying), 30 min): 0 pg/mL
plasma peptide concentration normalized to a 1 mg dose (Dog 2 (delayed gastric emptying), 45 min): 0 pg/mL
plasma peptide concentration normalized to a 1 mg dose (Dog 2 (delayed gastric emptying), 60 min): 0 pg/mL
plasma peptide concentration normalized to a 1 mg dose (Dog 2 (delayed gastric emptying), 75 min): 0 pg/mL
plasma peptide concentration normalized to a 1 mg dose (Dog 2 (delayed gastric emptying), 90 min): 0 pg/mL
plasma peptide concentration normalized to a 1 mg dose (Dog 2 (delayed gastric emptying), 105 min): 0 pg/mL
plasma peptide concentration normalized to a 1 mg dose (Dog 2 (delayed gastric emptying), 120 min): 0 pg/mL
plasma peptide concentration normalized to a 1 mg dose (Dog 2 (delayed gastric emptying), 135 min): 0 pg/mL
plasma peptide concentration normalized to a 1 mg dose (Dog 2 (delayed gastric emptying), 150 min): 0 pg/mL
plasma peptide concentration normalized to a 1 mg dose (Dog 2 (delayed gastric emptying), 165 min): 0 pg/mL
plasma peptide concentration normalized to a 1 mg dose (Dog 2 (delayed gastric emptying), 180 min): 0 pg/mL
plasma peptide concentration normalized to a 1 mg dose (Dog 2 (delayed gastric emptying), 195 min): 0 pg/mL
plasma peptide concentration normalized to a 1 mg dose (Dog 2 (delayed gastric emptying), 210 min): 0 pg/mL
plasma peptide concentration normalized to a 1 mg dose (Dog 3, 0 min): 0 pg/mL
plasma peptide concentration normalized to a 1 mg dose (Dog 3, 15 min): 0 pg/mL
plasma peptide concentration normalized to a 1 mg dose (Dog 3, 30 min): 0 pg/mL
plasma peptide concentration normalized to a 1 mg dose (Dog 3, 45 min): 0 pg/mL
plasma peptide concentration normalized to a 1 mg dose (Dog 3, 60 min): 0 pg/mL
